# Key:
# Test in all cases: Kirby-Bauer disk diffusion susceptibility test
# B. cereus = format: cell-based, Bacillus cereus
# Description: (§1) Bacterial strains, from clinical origin, were supplied by the National Center for Microbiology, Institute of Health Carlos III (Majadahonda, Madrid). They are detailed in Table I.
# (§2) Bacterial cells suspension in sterile saline was prepared from a culture of 24-72 h, depending on bacterial species, in Mueller-Hinton Agar with 5% sheep blood. Each suspension was adjusted to a fixed size inoculum of 1-5×10^8 CFU/ml with a spectrophotometer (Ferraro, M J National Committee for Clinical Laboratory Standards. 2000).
# (§3) Kirby-Bauer disk diffusion susceptibility test protocol was utilized to determine the sensitivity or resistance of pathogenic bacteria against the compounds and others antibiotics. The absence of growth around the disks is an indirect measure of the ability of this compound to inhibit an organism (Kirby, W. et al., Antibiotics Annu. 1956-1957:892). After 18 to 72 hours of incubation at […], with or without CO2, under aerobic or anaerobic conditions, depending on the bacterial species, halo of growth inhibition were obtained and evaluated.
# (§4) Interpretation of susceptibility and resistance was based on the presence or absence of a zone of inhibition surrounding the disk. Kirby-Bauer disk diffusion susceptibility test is a common method which uses antibiotic-impregnated wafers to test whether bacteria are affected by antibiotics. The size of the zone of inhibition depends on how effective the antibiotic is at stopping the growth of the bacterium. A stronger antibiotic will create a larger zone, because a lower concentration of the antibiotic is enough to stop growth.
# S. aureus = format: cell-based
# Description: as §1, §2, §3, §4
# S. epidermidis = format: cell-based
# Description: as §1, §2, §3, §4
# P. aeruginosa = format: cell-based; settings: P. aeruginosa strain 96, isolation year 2014
# Description: as §1, §2, §3, §4
# A. baumannii = format: cell-based
# Description: as §1, §2, §3, §4
# E. faecalis = format: cell-based
# Description: as §1, §2, §3, §4
# E. faecium = format: cell-based
# Description: as §1, §2, §3, §4
# N. cyriacigeorgica = format: cell-based
# Description: as §1, §2, §3, §4
# E. coli = format: cell-based
# Description: as §1, §2, §3, §4
# T. pulmonis = format: cell-based, Tsukamurella pulmonis
# Description: as §1, §2, §3, §4
# N. carnea = format: cell-based, Nocardia carnea
# Description: as §1, §2, §3, §4
# M. abscessus = format: cell-based, Mycobacterium abscessus; settings: M. abscessus strain 690, isolation year 2012
# Description: as §1, §2, §3, §4
# M. chelonae = format: cell-based; settings: M. chelonae strain 870, isolation year 2011
# Description: as §1, §2, §3, §4
# M. fortuitum = format: cell-based; settings: M. fortuitum strain 1080, isolation year 2011
# Description: as §1, §2, §3, §4
# [1] = B. cereus strain 25, isolation year 2014
# [2] = B. cereus strain 182, isolation year 2013
# [3] = S. aureus strain 282, isolation year 2005
# [4] = S. aureus strain 890, isolation year 2010
# [5] = S. epidermidis strain 188, isolation year 2009
# [6] = S. epidermidis strain 982, isolation year 2006
# [7] = E. faecalis strain 52, isolation year 2006
# [8] = E. faecalis strain 1052, isolation year 2008
# [9] = E. faecium strain 26, isolation year 2012
# [10] = E. faecium strain 209, isolation year 2015
# [11] = N cyriacigeorgica strain 199, isolation year 2005
# [12] = N. cyriacigeorgica strain 30, isolation year 2005
# [13] = E. coli strain 29, isolation year 2012
# [14] = E. coli strain 305, isolation year 2008
# [15] = T. pulmonis strain 40, isolation year 2015
# [16] = T. pulmonis strain 1991, isolation year 2009
# [17] = N. carnea strain 40, isolation year 2011
# [18] = N. carnea strain 769, isolation year 2009
compound,measurement,setting,value
"CO[C@H]1/C=C/O[C@@]2(C)Oc3c(C)c(O)c4c(O)c(c(/C=N/N5CCN(C)CC5)c(O)c4c3C2=O)NC(=O)/C(C)=C\C=C\[C@H](C)[C@H](O)[C@@H](C)[C@@H](O)[C@@H](C)[C@H](OC(C)=O)[C@@H]1C [RIF, Rifampicin]",Sensitivity or resistance of the strain to the antibiotic,B. cereus; [1],S
same,Sensitivity or resistance of the strain to the antibiotic,B. cereus; [2],S
"CN(C)[C@@H]1C(O)=C(C(N)=O)C(=O)[C@@]2(O)C(O)=C3C(=O)c4c(O)cccc4[C@@](C)(O)[C@H]3C[C@@H]12 [TET, Tetracycline]",Sensitivity or resistance of the strain to the antibiotic,S. aureus; [3],S
same,Sensitivity or resistance of the strain to the antibiotic,S. aureus; [4],R
same,Sensitivity or resistance of the strain to the antibiotic,S. epidermidis; [5],S
same,Sensitivity or resistance of the strain to the antibiotic,S. epidermidis; [6],S
same,Sensitivity or resistance of the strain to the antibiotic,B. cereus; [1],R
same,Sensitivity or resistance of the strain to the antibiotic,B. cereus; [2],S
"NC[C@H]1O[C@H](O[C@H]2[C@H](O)[C@@H](O[C@H]3O[C@H](CO)[C@@H](O)[C@H](N)[C@H]3O)[C@H](N)C[C@@H]2N)[C@H](N)C[C@@H]1O [TOB, Tobramycin]",Sensitivity or resistance of the strain to the antibiotic,P. aeruginosa,S
same,Sensitivity or resistance of the strain to the antibiotic,"A. baumannii; A. baumannii strain 300, isolation year 2001",S
same,Sensitivity or resistance of the strain to the antibiotic,"A. baumannii; A. baumannii strain 1301, isolation year 2009",S
"CN[C@H](CC(C)C)C(=O)N[C@H]1C(=O)N[C@@H](CC(N)=O)C(=O)N[C@H]2C(=O)N[C@H]3C(=O)N[C@H](C(=O)N[C@H](C(=O)O)c4cc(O)cc(O)c4-c4cc3ccc4O)[C@H](O)c3ccc(c(Cl)c3)Oc3cc2cc(c3O[C@@H]2O[C@H](CO)[C@@H](O)[C@H](O)[C@H]2O[C@H]2C[C@](C)(N)[C@H](O)[C@H](C)O2)Oc2ccc(cc2Cl)[C@H]1O [VAN, Vancomycin]",Sensitivity or resistance of the strain to the antibiotic,S. aureus; [3],S
same,Sensitivity or resistance of the strain to the antibiotic,S. aureus; [4],S
same,Sensitivity or resistance of the strain to the antibiotic,E. faecalis; [7],S
same,Sensitivity or resistance of the strain to the antibiotic,E. faecalis; [8],S
same,Sensitivity or resistance of the strain to the antibiotic,S. epidermidis; [5],S
same,Sensitivity or resistance of the strain to the antibiotic,S. epidermidis; [6],S
same,Sensitivity or resistance of the strain to the antibiotic,E. faecium; [9],I
same,Sensitivity or resistance of the strain to the antibiotic,E. faecium; [10],S
same,Sensitivity or resistance of the strain to the antibiotic,B. cereus; [1],S
same,Sensitivity or resistance of the strain to the antibiotic,B. cereus; [2],S
Amoxicillin/Clavulanate [A/C],Sensitivity or resistance of the strain to the antibiotic,N. cyriacigeorgica; [11],R
same,Sensitivity or resistance of the strain to the antibiotic,N. cyriacigeorgica; [12],R
same,Sensitivity or resistance of the strain to the antibiotic,E. coli; [13],S
same,Sensitivity or resistance of the strain to the antibiotic,E. coli; [14],R
same,Sensitivity or resistance of the strain to the antibiotic,T. pulmonis; [15],R
same,Sensitivity or resistance of the strain to the antibiotic,T. pulmonis; [16],S
same,Sensitivity or resistance of the strain to the antibiotic,N. carnea; [17],S
same,Sensitivity or resistance of the strain to the antibiotic,N. carnea; [18],S
Cotrimoxazole [SxT],Sensitivity or resistance of the strain to the antibiotic,M. abscessus,S
same,Sensitivity or resistance of the strain to the antibiotic,M. chelonae,R
same,Sensitivity or resistance of the strain to the antibiotic,N. cyriacigeorgica; [11],S
same,Sensitivity or resistance of the strain to the antibiotic,N. cyriacigeorgica; [12],S
same,Sensitivity or resistance of the strain to the antibiotic,M. fortuitum,S
same,Sensitivity or resistance of the strain to the antibiotic,T. pulmonis; [15],R
same,Sensitivity or resistance of the strain to the antibiotic,T. pulmonis; [16],S
same,Sensitivity or resistance of the strain to the antibiotic,N. carnea; [17],R
same,Sensitivity or resistance of the strain to the antibiotic,N. carnea; [18],R
Gentamicin,Sensitivity or resistance of the strain to the antibiotic,S. aureus; [3],R
same,Sensitivity or resistance of the strain to the antibiotic,S. aureus; [4],R
same,Sensitivity or resistance of the strain to the antibiotic,E. faecalis; [7],S
same,Sensitivity or resistance of the strain to the antibiotic,E. faecalis; [8],S
same,Sensitivity or resistance of the strain to the antibiotic,S. epidermidis; [5],S
same,Sensitivity or resistance of the strain to the antibiotic,S. epidermidis; [6],R
same,Sensitivity or resistance of the strain to the antibiotic,E. faecium; [9],S
same,Sensitivity or resistance of the strain to the antibiotic,E. faecium; [10],S
same,Sensitivity or resistance of the strain to the antibiotic,E. coli; [13],S
same,Sensitivity or resistance of the strain to the antibiotic,E. coli; [14],S

# Reference: patent publication US11008295B2, “Compounds having antiinfective, antitumoral and antifungal activity” (priority 2017, dated 2021)
